Data: patent publication US10189809B2, “SGC stimulators” (Ironwood Pharmaceuticals, Inc., priority 2010, dated 2019)
pEC50: −log10 of the molar value. Where two headings read alike, the source gives them in different places.

Key:
[1] = biological target: T1, soluble guanylate cyclase (sGC) (Homo sapiens (Human), UniProt Q02108+Q02153); assay: sGC-HEK-cGMP assay run with SNP incubation (HEK WC assay); type: cell-based; details: for HEK WC Assay (fold increase at 30 μM in the presence of 10 μM SNP): compound at 30 μM; for pEC50: in the presence of 10 uM SNP
Procedure, shortened: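 HEK293 cells with endogenous sGC were pretreated with 0.5 mM IBMX for 15 min at 37 °C, then exposed to test compound plus sodium nitroprusside for 10 min at 37 °C.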

[2] = biological target: T2, Human soluble guanylate cyclase enzyme (hsGC) (Homo sapiens (Human), UniProt Q02108+Q02153); assay: Purified human sGC enzyme activity assay; type: biochemical; details: for sGC Enzyme (fold increase at 10 μM without SNP) / sGC Enzyme (specific activity at 10 μM): 10 μM compound; for sGC Enzyme (fold increase at 30 μM without SNP) / sGC Enzyme (fold increase at 30 μM) / sGC Enzyme (specific activity at 30 μM): 30 μM compound; for sGC Enzyme (fold increase at 30 μM): without the addition of SNP
Procedure, shortened: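 Purified human sGC (5 ng) incubated 30 min at 37° C with compound at 10 or 30 μM final in pH 8.0 Tris with 300 μM GTP, 2 mM MgCl2, 2 mM DTT and 1 mM IBMX, then stopped with cold methanol. cGMP quantified against a standard curve. Specific activity (nmol cGMP/mg sGC/min) expressed as fold-change over DMSO control.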

[3] = biological target: T2, Human soluble guanylate cyclase enzyme (hsGC); assay: Purified human sGC enzyme synergy assay in the presence of 1 μM sodium nitroprusside (SNP); type: biochemical; details: for sGC Enzyme (fold increase at 10 μM with SNP): 10 μM compound; for sGC Enzyme (fold increase at 30 μM with SNP): 30 μM compound
Description: Human soluble guanylate cyclase enzyme (hsGC) obtained from Enzo Inc. (P/N: ALX-201-177) was used to evaluate the activity of test compounds. The assay reactions contained 0.1 M Tris (pH 8.0), 0.5 mg/mL BSA (pH 8.0), 2 mM DTT, 2 mM MgCl2, 300 μM GTP, 1 mM 3-isobutyl-1-methylxanthine (IBMX) and 5 ng human soluble guanylate cyclase enzyme. Test compounds in DMSO were then added (2 μL, 10 or 30 μM final concentration) and incubated (200 μL, 96-well plate format) at 37° C. for 30 minutes. The controls were carried out using 2 μL DMSO. After the 30 minute incubation, the reaction was stopped with the addition of 200 μL of cold methanol. The plate was then centrifuged at 3,200 rpm for 10 minutes at room temperature. Supernatants (200 μL) were collected and transferred to a new 96 well plate for analysis.
An 8 point cGMP (Sigma-Aldrich P/N: G6129) standard curve was prepared in assay buffer ranging from 0.156-20 μM. Samples for the cGMP standard curve were then diluted with an equal volume of methanol resulting in final cGMP concentrations of 0.078-10 μM.
The cGMP standard curve was generated using GraphPad Prism Software.
Calculations: Specific Activity was determined by the amount of cGMP formed (nmoles) per mg of sGC per min. Enzyme “fold-change” was calculated by dividing Specific Activity for test compounds by Specific Activity of DMSO controls.
Enzyme assays were performed as described above, but was done in the presence of 1 μM sodium nitroprusside (SNP).

[4] = biological target: T1, soluble guanylate cyclase (sGC); assay: sGC-HEK-cGMP assay run in the absence of SNP (HEK WC assay); type: cell-based; details: compound at 30 μM, absence of SNP
Procedure, shortened: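 HEK293 cells with endogenous sGC, preincubated 15 min at 37° C with 0.5 mM IBMX, then exposed to test compound 10 min at 37° C without SNP. Cells lysed in 0.1 M HCl; cGMP quantified by LC/MS against a standard curve. EC50 from concentration-response curves.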

[5] = system: Thoracic aortic rings; assay: Alternative thoracic aortic rings assay (Example 19b; resting tension as 100% inhibition); parameters: species or system rat; details: Rattus norvegicus, Table 10B; for inhibition at 1 µM: read-out: Percent Relaxation at 1 μM; for inhibition at 3 µM: read-out: Percent Relaxation at 3 μM; for inhibition at 10 µM: read-out: Percent Relaxation at 10 μM; for pEC50: read-out: Aortic Ring EC50
Procedure, shortened: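 Aortic rings (~2 mm) from male Sprague-Dawley rats (275-299 g) held at 1.0 g resting tension in Krebs-Henseleit at 37 °C under 95% O2/5% CO2, then precontracted with 100 ng/mL phenylephrine. Compounds in DMSO added cumulatively; relaxation recorded by force transducer and EC50 taken from concentration-response curves.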

[6] = read-out: HEK WC Assay (% Emax at 1 μM with 10 uM SNP)
[7] = read-out: HEK WC Assay (% Emax at 10 μM with 10 uM SNP)
[8] = read-out: HEK WC Assay (% Emax at 30 μM with 10 uM SNP)

T2 sequence (Q02153 whole entry): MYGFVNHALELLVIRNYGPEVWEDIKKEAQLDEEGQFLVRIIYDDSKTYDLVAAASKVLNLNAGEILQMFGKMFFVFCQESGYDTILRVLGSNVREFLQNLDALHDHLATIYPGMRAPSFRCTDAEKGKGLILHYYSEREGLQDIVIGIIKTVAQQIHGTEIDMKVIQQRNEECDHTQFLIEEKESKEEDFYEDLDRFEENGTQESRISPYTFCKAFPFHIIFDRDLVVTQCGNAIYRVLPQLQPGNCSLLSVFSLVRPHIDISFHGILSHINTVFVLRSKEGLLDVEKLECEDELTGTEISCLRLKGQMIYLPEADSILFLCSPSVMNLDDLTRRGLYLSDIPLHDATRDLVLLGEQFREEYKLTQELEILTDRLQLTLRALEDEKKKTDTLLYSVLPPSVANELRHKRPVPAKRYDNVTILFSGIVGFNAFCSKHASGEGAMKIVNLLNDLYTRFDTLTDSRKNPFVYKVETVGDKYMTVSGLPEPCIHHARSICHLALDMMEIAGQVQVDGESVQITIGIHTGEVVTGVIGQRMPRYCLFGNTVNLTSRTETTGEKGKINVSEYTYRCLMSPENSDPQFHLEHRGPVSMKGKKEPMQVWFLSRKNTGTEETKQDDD
T2 sequence (Q02108 whole entry): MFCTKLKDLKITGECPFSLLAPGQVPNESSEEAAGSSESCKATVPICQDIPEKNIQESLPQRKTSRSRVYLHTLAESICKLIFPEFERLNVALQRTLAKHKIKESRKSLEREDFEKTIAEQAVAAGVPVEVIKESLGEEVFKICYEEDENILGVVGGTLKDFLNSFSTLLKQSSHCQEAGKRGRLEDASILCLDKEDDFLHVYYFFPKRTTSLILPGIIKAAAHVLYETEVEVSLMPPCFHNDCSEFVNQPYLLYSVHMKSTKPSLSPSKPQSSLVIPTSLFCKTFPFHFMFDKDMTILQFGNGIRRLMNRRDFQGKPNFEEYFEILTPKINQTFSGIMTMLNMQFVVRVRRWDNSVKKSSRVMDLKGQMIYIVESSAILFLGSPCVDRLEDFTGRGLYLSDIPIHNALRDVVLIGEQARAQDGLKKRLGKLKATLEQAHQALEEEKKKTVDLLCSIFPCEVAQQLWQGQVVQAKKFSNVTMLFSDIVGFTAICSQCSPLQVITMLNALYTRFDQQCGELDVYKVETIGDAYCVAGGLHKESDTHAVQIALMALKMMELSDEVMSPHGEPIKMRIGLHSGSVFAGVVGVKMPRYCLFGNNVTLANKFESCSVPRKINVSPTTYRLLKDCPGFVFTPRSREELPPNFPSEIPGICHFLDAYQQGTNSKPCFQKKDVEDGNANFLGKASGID
T1 sequence (Q02153 whole entry): as the sequence (Q02153 whole entry) above
T1 sequence (Q02108 whole entry): as the sequence (Q02108 whole entry) above

Row | Structure (SMILES) | sGC Enzyme (fold increase at 10 μM without SNP) [2] | sGC Enzyme (fold increase at 30 μM without SNP) [2] | sGC Enzyme (fold increase at 10 μM with SNP) ([3]; with 1 μM SNP) | sGC Enzyme (fold increase at 30 μM with SNP) ([3]; with 1 μM SNP) | sGC Enzyme (fold increase at 30 μM) [2] | sGC Enzyme (fold increase at 30 μM with SNP) ([3]; with the addition of SNP) | sGC Enzyme (specific activity at 10 μM) [2] | sGC Enzyme (specific activity at 30 μM) [2] | further results
1 | Fc1ccccc1Cn1nc(-c2ccccn2)c(I)c1-c1ccccn1 [Compound I-53] | A (A = no increase to <2 fold increase) | A (A = no increase to <2 fold increase) | A (A = no increase to <2 fold increase) | A (A = no increase to <2 fold increase) |  |  |  |  | Emax at 10 µM ([1]; read-out: HEK WC Assay (% Emax at 10 uM/with 10 uM SNP)): 0 to 10%; Emax at 30 µM ([1]; read-out: HEK WC Assay (% Emax at 30 uM/with 10 uM SNP)): 0 to 10%
2 | Nc1cc(N)nc(-c2cc(-c3ccon3)n(Cc3ccccc3F)n2)n1 [Compound I-103, 2-(1-(2-fluorobenzyl)-5-(isoxazol-3-yl)-1H-pyrazol-3-yl)pyrimidine-4,6-diamine] |  |  |  |  | A (A = no increase to <2 fold increase) | B (B = 2 to <5 fold increase) |  |  | Emax at 10 µM ([1]; read-out: HEK WC Assay (% Emax at 10 μM/with 10 uM SNP)): 20 to 40%; Emax at 30 µM ([1]; read-out: HEK WC Assay (% Emax at 30 μM/with 10 uM SNP)): 20 to 40%
3 | COc1cccc(-c2cc(-c3ccccn3)nn2Cc2ccccc2F)c1 [Compound I-38] | A (A = no increase to <2 fold increase) | A (A = no increase to <2 fold increase) | A (A = no increase to <2 fold increase) | A (A = no increase to <2 fold increase) |  |  | C (C = 100 to <200) | C (C = 100 to <200) | 
4 | COc1ccccc1-c1cc(-c2ncccn2)nn1Cc1ccccc1F [Compound I-37] | A (A = no increase to <2 fold increase) | A (A = no increase to <2 fold increase) | A (A = no increase to <2 fold increase) | A (A = no increase to <2 fold increase) |  |  | C (C = 100 to <200) | C (C = 100 to <200) | 
5 | Nc1nc(-c2cc(-c3ccon3)n(Cc3ccccc3F)n2)ncc1N1CCCC1 [Compound I-129] |  |  |  |  | B (B = 2 to <5 fold increase) | D (D = 10 to <30 fold increase) |  |  | 
6 | COc1ccccc1-c1cc(-c2ccccn2)nn1Cc1ccccc1F [Compound I-36] | A (A = no increase to <2 fold increase) | A (A = no increase to <2 fold increase) | A (A = no increase to <2 fold increase) | A (A = no increase to <2 fold increase) |  |  | C (C = 100 to <200) | C (C = 100 to <200) | 
7 | Nc1nc(-c2cc(-c3ccon3)n(Cc3ccccc3F)n2)ncc1-c1ccsc1 [Compound I-121] |  |  |  |  | C (C = 5 to <10 fold increase) | D (D = 10 to <30 fold increase) |  |  | 
8 | Cc1ccccc1-c1cc(-c2ccccn2)nn1Cc1ccccc1F [Compound I-24] | A (A = no increase to <2 fold increase) | A (A = no increase to <2 fold increase) | A (A = no increase to <2 fold increase) | A (A = no increase to <2 fold increase) |  |  | C (C = 100 to <200) | C (C = 100 to <200) | 
9 | Fc1ccccc1Cn1nc(-c2ccccn2)cc1-c1csc2ccccc12 [Compound I-18] | A (A = no increase to <2 fold increase) | A (A = no increase to <2 fold increase) | A (A = no increase to <2 fold increase) | A (A = no increase to <2 fold increase) |  |  | C (C = 100 to <200) | C (C = 100 to <200) | 
10 | Nc1nc(-c2cc(-c3ccon3)n(Cc3ccccc3F)n2)ncc1NC(=O)c1ccc(F)cc1 [Compound I-168] |  |  |  |  |  |  |  |  | HEK WC Assay (fold increase at 30 μM in the absence of SNP) [4]: E (E = 10 to <20 fold increase); HEK WC Assay (fold increase at 30 μM in the presence of 10 μM SNP) [1]: G (G = 30 to <40 fold increase); pEC50 [1]: > 4.70; Emax [1, 6]: 100 to 120%; Emax [1, 7]: 100 to 120%; Emax [1, 8]: 100 to 120%; inhibition at 1 µM [5]: 60 to 80%; inhibition at 3 µM [5]: 100 to 120%; inhibition at 10 µM [5]: 100 to 120%; pEC50 [5]: > 5.70
11 | COC(=O)Nc1cnc(-c2cc(-c3ccon3)n(Cc3ccccc3F)n2)nc1N [Compound I-142] |  |  |  |  |  |  |  |  | HEK WC Assay (fold increase at 30 μM in the absence of SNP) [4]: E (E = 10 to <20 fold increase); HEK WC Assay (fold increase at 30 μM in the presence of 10 μM SNP) [1]: F (F = 20 to <30 fold increase); pEC50 [1]: > 4.70; Emax [1, 7]: 100 to 120%; Emax [1, 8]: 100 to 120%; inhibition at 1 µM [5]: 80 to 100%; inhibition at 3 µM [5]: 100 to 120%; pEC50 [5]: > 5.70
12 | O=S(=O)(c1ccccc1)c1cnc(-c2cc(-c3ccon3)n(Cc3ccccc3F)n2)nc1O [Compound I-217] |  |  |  |  |  |  |  |  | HEK WC Assay (fold increase at 30 μM in the absence of SNP) [4]: D (D = 5 to <10 fold increase); HEK WC Assay (fold increase at 30 μM in the presence of 10 μM SNP) [1]: F (F = 20 to <30 fold increase); pEC50 [1]: > 4.70; Emax [1, 6]: 60 to 80%; Emax [1, 7]: 100 to 120%; inhibition at 1 µM [5]: 40 to 60%; inhibition at 3 µM [5]: 60 to 80%; inhibition at 10 µM [5]: 80 to 100%; pEC50 [5]: > 5.70
13 | Nc1nc(-c2cc(-c3ccon3)n(Cc3ccccc3F)n2)ncc1NC(=O)c1ccncc1 [Compound I-176] |  |  |  |  |  |  |  |  | HEK WC Assay (fold increase at 30 μM in the absence of SNP) [4]: E (E = 10 to <20 fold increase); HEK WC Assay (fold increase at 30 μM in the presence of 10 μM SNP) [1]: E (E = 10 to <20 fold increase); pEC50 [1]: > 4.70; Emax [1, 6]: 20 to 40%; Emax [1, 7]: 60 to 80%; Emax [1, 8]: 60 to 80%; inhibition at 1 µM [5]: 80 to 100%; inhibition at 3 µM [5]: 100 to 120%; pEC50 [5]: > 5.70

The next lines start with results.

Row | sGC Enzyme (fold increase at 10 μM without SNP) [2] | sGC Enzyme (fold increase at 30 μM without SNP) [2] | sGC Enzyme (fold increase at 10 μM with SNP) ([3]; with 1 μM SNP) | sGC Enzyme (fold increase at 30 μM with SNP) ([3]; with 1 μM SNP) | sGC Enzyme (fold increase at 30 μM) [2] | sGC Enzyme (fold increase at 30 μM with SNP) ([3]; with the addition of SNP) | sGC Enzyme (specific activity at 10 μM) [2] | sGC Enzyme (specific activity at 30 μM) [2] | Structure (SMILES) | further results
14 |  |  |  |  | C (C = 5 to <10 fold increase) | D (D = 10 to <30 fold increase) |  |  | N#Cc1cnc(-c2cc(-c3ccon3)n(Cc3ccccc3F)n2)nc1N [Compound I-130] | 
15 |  |  |  |  | C (C = 5 to <10 fold increase) | C (C = 5 to <10 fold increase) |  |  | Nc1nc(-c2cc(-c3ccon3)n(Cc3ccccc3F)n2)ncc1N1CCOCC1 [Compound I-139] | 
